The target in this test is Human DGAT2 (hDGAT2) (Homo sapiens (Human), UniProt Q96PD7). Nature of the test: In vitro DGAT2 assay, IC50 determination with hDGAT2 membrane fraction. As to conditions: geometric mean; background for complete inhibition of DGAT2 obtained with 50 μM (1R,2R)-2-({3′-Fluoro-4′-[(6-fluoro-1,3-benzothiazol-2-yl)amino]-1,1′-biphenyl-4-yl}carbonyl)cyclopentanecarboxylic acid; read-out: DGAT2 IC50. In kind it is biochemical. A digest of the protocol: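 CHAPS-solubilized membrane fraction of FLAG-tagged hDGAT2 from baculovirus-infected SF9 cells (0.01 mg/mL) in 100 mM Hepes-NaOH pH 7.4, 20 mM MgCl2, 200 nM methyl arachidonyl fluorophosphonate; compounds pre-incubated 20 min with 0.04% BSA. Reaction 40 min at room temperature, stopped with H3PO4. [^14C]tridecanoylglycerol in organic phase counted; 11-point geometric mean IC50.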
Sequence of Human DGAT2 (hDGAT2) (Q96PD7 whole entry): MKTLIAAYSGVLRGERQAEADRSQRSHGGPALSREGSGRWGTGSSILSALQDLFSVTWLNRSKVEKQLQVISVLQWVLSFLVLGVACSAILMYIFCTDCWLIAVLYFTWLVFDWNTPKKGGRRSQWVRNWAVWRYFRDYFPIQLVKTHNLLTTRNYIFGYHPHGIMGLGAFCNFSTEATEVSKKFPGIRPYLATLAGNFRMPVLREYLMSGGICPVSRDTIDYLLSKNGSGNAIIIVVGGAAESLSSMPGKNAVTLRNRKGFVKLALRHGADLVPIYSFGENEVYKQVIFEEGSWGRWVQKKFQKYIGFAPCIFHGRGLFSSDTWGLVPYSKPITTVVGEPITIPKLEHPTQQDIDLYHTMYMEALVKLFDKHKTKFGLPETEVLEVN

Take `O=C([C@@H]1CCCN(c2ccc3nc(-c4cncc(C5CC5)n4)[nH]c3n2)C1)N1CCCC1` [Example 101, (R)-(1-(2-(6-Cyclopropylpyrazin-2-yl)-3H-imidazo[4,5-b]pyridin-5-yl)piperidin-3-yl)(pyrrolidin-1-yl)methanone]: the concentration for half-maximal inhibition (IC50) amounted to 60.5 nM.

With `COc1cccc(C2(c3nc4ccc(N5CCC[C@@H](C(=O)N6CCCC6)C5)nc4[nH]3)CC2)c1` [Example 102, (R)-(1-(2-(1-(3-Methoxyphenyl)cyclopropyl)-3H-imidazo[4,5-b]pyridin-5-yl)piperidin-3-yl)(pyrrolidin-1-yl)methanone], the IC50 worked out at 99.6 nM.

On to `Cc1ccc(C2(c3nc4ccc(N5CCC[C@@H](C(=O)N6CCCC6)C5)nc4[nH]3)CC2)cc1` [Example 103, (R)-Pyrrolidin-1-yl(1-(2-(1-(p-tolyl)cyclopropyl)-3H-imidazo[4,5-b]pyridin-5-yl)piperidin-3-yl)methanone], for which the IC50 was found to be 73.7 nM.

As to `Cn1nccc1C1(c2nc3ccc(N4CCC[C@@H](C(=O)N5CCCC5)C4)nc3[nH]2)CC1` [Example 104, (R)-(1-(2-(1-(1-Methyl-1H-pyrazol-5-yl)cyclopropyl)-3H-imidazo[4,5-b]pyridin-5-yl)piperidin-3-yl)(pyrrolidin-1-yl)methanone], the half-inhibitory concentration (IC50) was found to be 190 nM.

Turning to `CCOC(=O)c1cc(CC)nc(-c2nc3ccc(N4CCC[C@@H](C(=O)N5CCCC5)C4)nc3[nH]2)c1` [Example 105, (R)-Ethyl 2-ethyl-6-(5-(3-(pyrrolidine-1-carbonyl)piperidin-1-yl)-3H-imidazo[4,5-b]pyridin-2-yl)isonicotinate], the concentration for half-maximal inhibition (IC50) came to 28.9 nM.

With `O=C([C@@H]1CCCN(c2ccc3nc(C4(c5ccc(C(F)(F)F)cc5)CC4)[nH]c3n2)C1)N1CCCC1` [Example 106, (R)-Pyrrolidin-1-yl(1-(2-(1-(4-(trifluoromethyl)phenyl)cyclopropyl)-3H-imidazo[4,5-b]pyridin-5-yl)piperidin-3-yl)methanone], the 50% inhibitory concentration (IC50) came out at 5.68 nM.

Take `O=C([C@@H]1CCCN(c2ccc3nc(-c4cncc(C5CC5)n4)[nH]c3n2)C1)N1CCOCC1` [Example 107, (R)-(1-(2-(6-Cyclopropylpyrazin-2-yl)-3H-imidazo[4,5-b]pyridin-5-yl)piperidin-3-yl)(morpholino)methanone]: the concentration for half-maximal inhibition (IC50) was determined as 153 nM.

On to `COC(=O)Cc1cccc(-c2nc3ccc(N4CCC[C@@H](C(=O)N5CCCC5)C4)nc3[nH]2)c1` [Example 110, (R)-Methyl 2-(3-(5-(3-(pyrrolidine-1-carbonyl)piperidin-1-yl)-3H-imidazo[4,5-b]pyridin-2-yl)phenyl)acetate], for which the half-maximal inhibitory concentration (IC50) came out at 41.5 nM.

On to `O=C([C@@H]1CCCN(c2ccc3nc(-c4cccc(C5(O)COC5)n4)[nH]c3n2)C1)N1CCCC1` [Example 111, (R)-(1-(2-(6-(3-Hydroxyoxetan-3-yl)pyridin-2-yl)-3H-imidazo[4,5-b]pyridin-5-yl)piperidin-3-yl)(pyrrolidin-1-yl)methanone], for which the IC50 worked out at 697 nM.

As for `O=C([C@@H]1CCCN(c2ccc3nc(-c4cccc(C(F)(F)F)n4)[nH]c3n2)C1)N1CCCC1` [Example 112, (R)-Pyrrolidin-1-yl(1-(2-(6-(trifluoromethyl)pyridin-2-yl)-3H-imidazo[4,5-b]pyridin-5-yl)piperidin-3-yl)methanone], the IC50 is 9.23 nM.

In the case of `O=C([C@@H]1CCCN(c2ccc3nc(-c4cncc(F)c4)[nH]c3n2)C1)N1CCCC1` [Example 113, (R)-(1-(2-(5-Fluoropyridin-3-yl)-3H-imidazo[4,5-b]pyridin-5-yl)piperidin-3-yl)(pyrrolidin-1-yl)methanone], the 50% inhibitory concentration (IC50) turned out to be 137 nM.

For the molecule `NS(=O)(=O)c1cccc(-c2nc3ccc(N4CCC[C@@H](C(=O)N5CCCC5)C4)nc3[nH]2)c1` [Example 114, (R)-3-(5-(3-(Pyrrolidine-1-carbonyl)piperidin-1-yl)-3H-imidazo[4,5-b]pyridin-2-yl)benzenesulfonamide], the IC50 came out at 90.3 nM.

As for `CC(C)(O)c1cccc(-c2nc3ccc(N4CCC[C@@H](C(=O)N5CCCC5)C4)nc3[nH]2)n1` [Example 115, (R)-(1-(2-(6-(2-Hydroxypropan-2-yl)pyridin-2-yl)-3H-imidazo[4,5-b]pyridin-5-yl)piperidin-3-yl)(pyrrolidin-1-yl)methanone], the half-inhibitory concentration (IC50) was 67.9 nM.

Regarding `O=C([C@@H]1CCCN(c2ccc3nc(-c4ccccc4)[nH]c3n2)C1)N1CCCC1` [Example 116, (R)-(1-(2-Phenyl-3H-imidazo[4,5-b]pyridin-5-yl)piperidin-3-yl)(pyrrolidin-1-yl)methanone], the concentration for half-maximal inhibition (IC50) was 66.2 nM.

Regarding `O=C([C@@H]1CCCN(c2ccc3nc(-c4coc(C5CC5)n4)[nH]c3n2)C1)N1CCCC1` [Example 118, (R)-(1-(2-(2-Cyclopropyloxazol-4-yl)-3H-imidazo[4,5-b]pyridin-5-yl)piperidin-3-yl)(pyrrolidin-1-yl)methanone], the half-inhibitory concentration (IC50) is 301 nM.

Turning to `CN(C)c1cccc(-c2nc3ccc(N4CCC[C@@H](C(=O)N5CCCC5)C4)nc3[nH]2)n1` [Example 119, (R)-(1-(2-(6-(Dimethylamino)pyridin-2-yl)-3H-imidazo[4,5-b]pyridin-5-yl)piperidin-3-yl)(pyrrolidin-1-yl)methanone], the IC50 came to 22.2 nM.

With `O=C([C@@H]1CCCN(c2ccc3nc(-c4cccc(N5CCC5)n4)[nH]c3n2)C1)N1CCCC1` [Example 120, (R)-(1-(2-(6-(Azetidin-1-yl)pyridin-2-yl)-3H-imidazo[4,5-b]pyridin-5-yl)piperidin-3-yl)(pyrrolidin-1-yl)methanone], the 50% inhibitory concentration (IC50) came to 21.5 nM.

Take `O=C([C@@H]1CCCN(c2ccc3nc(-c4cccc(OC(F)F)n4)[nH]c3n2)C1)N1CCCC1` [Example 121, (R)-(1-(2-(6-(Difluoromethoxy)pyridin-2-yl)-3H-imidazo[4,5-b]pyridin-5-yl)piperidin-3-yl)(pyrrolidin-1-yl)methanone]: the half-inhibitory concentration (IC50) stood at 14.3 nM.

With `O=C([C@@H]1CCCN(c2ccc3nc(-c4cccc(C(F)F)n4)[nH]c3n2)C1)N1CCCC1` [Example 122, (R)-(1-(2-(6-(Difluoromethyl)pyridin-2-yl)-3H-imidazo[4,5-b]pyridin-5-yl)piperidin-3-yl)(pyrrolidin-1-yl)methanone], the concentration for half-maximal inhibition (IC50) was 10.9 nM.

Turning to `COC(=O)c1cccc(-c2nc3ccc(N4CCC[C@@H](C(=O)N5CCCC5)C4)nc3[nH]2)n1` [Example 123, (R)-Methyl 6-(5-(3-(pyrrolidine-1-carbonyl)piperidin-1-yl)-1H-imidazo[4,5-b]pyridin-2-yl)picolinate], the IC50 is 276 nM.

As to `CCOC(=O)C1(c2cccc(-c3nc4ccc(N5CCC[C@@H](C(=O)N6CCCC6)C5)nc4[nH]3)c2)CC1` [Example 124, (R)-Ethyl 1-(3-(5-(3-(pyrrolidine-1-carbonyl)piperidin-1-yl)-3H-imidazo[4,5-b]pyridin-2-yl)phenyl)cyclopropanecarboxylate], the IC50 turned out to be 5.27 nM.

Turning to `COC(=O)c1cccc(-c2nc3ccc(N4CCC[C@@H](C(=O)N5CCCC5)C4)nc3[nH]2)c1` [Example 125, (R)-Methyl 3-(5-(3-(pyrrolidine-1-carbonyl)piperidin-1-yl)-3H-imidazo[4,5-b]pyridin-2-yl)benzoate], the half-inhibitory concentration (IC50) was determined as 54 nM.

Turning to `COc1cc(C(=O)O)cc(-c2nc3ccc(N4CCC[C@@H](C(=O)N5CCCC5)C4)nc3[nH]2)n1` [Example 126, (R)-2-Methoxy-6-(5-(3-(pyrrolidine-1-carbonyl)piperidin-1-yl)-3H-imidazo[4,5-b]pyridin-2-yl)isonicotinic acid], the IC50 was 3470 nM.

With `CS(=O)(=O)c1cccc(-c2nc3ccc(N4CCC[C@@H](C(=O)N5CCCC5)C4)nc3[nH]2)c1` [Example 127, (R)-(1-(2-(3-(Methylsulfonyl)phenyl)-3H-imidazo[4,5-b]pyridin-5-yl)piperidin-3-yl)(pyrrolidin-1-yl)methanone], the IC50 came out at 235 nM.

As for `CCOC(=O)CCc1cccc(-c2nc3ccc(N4CCC[C@@H](C(=O)N5CCCC5)C4)nc3[nH]2)c1` [Example 128, (R)-Ethyl 3-(3-(5-(3-(pyrrolidine-1-carbonyl)piperidin-1-yl)-3H-imidazo[4,5-b]pyridin-2-yl)phenyl)propanoate], the IC50 turned out to be 7.16 nM.

On to `CCN(CC)C(=O)c1nc2ccc(N3CCC[C@@H](C(=O)N4CCCC4)C3)nc2[nH]1` [Example 129, (R)—N,N-Diethyl-5-(3-(pyrrolidine-1-carbonyl)piperidin-1-yl)-3H-imidazo[4,5-b]pyridine-2-carboxamide], for which the concentration for half-maximal inhibition (IC50) is 4540 nM.

In the case of `O=C(Nc1ccccn1)c1nc2ccc(N3CCC[C@@H](C(=O)N4CCCC4)C3)nc2[nH]1` [Example 130, (R)—N-(Pyridin-2-yl)-5-(3-(pyrrolidine-1-carbonyl)piperidin-1-yl)-3H-imidazo[4,5-b]pyridine-2-carboxamide], the IC50 turned out to be 1900 nM.

On to `O=C([C@@H]1CCCN(c2ccc3nc(-c4ccnc(C5CC5)n4)[nH]c3n2)C1)N1CCC(F)(F)C1` [Example 131, (R)-(1-(2-(2-Cyclopropylpyrimidin-4-yl)-3H-imidazo[4,5-b]pyridin-5-yl)piperidin-3-yl)(3,3-difluoropyrrolidin-1-yl)methanone], for which the IC50 came out at 34.4 nM.

For the molecule `O=C([C@@H]1CCCN(c2ccc3nc(-c4ccnc(C5CC5)n4)[nH]c3n2)C1)N1CC[C@H](O)C1` [Example 132, ((R)-1-(2-(2-Cyclopropylpyrimidin-4-yl)-3H-imidazo[4,5-b]pyridin-5-yl)piperidin-3-yl)((S)-3-hydroxypyrrolidin-1-yl)methanone], the half-maximal inhibitory concentration (IC50) was determined as 695 nM.

Consider `c1cc(-c2nc3ccc(N4CCCC(c5ncc6n5CCC6)C4)nc3[nH]2)nc(C2CC2)n1` (stereo not drawn) [Example 133, 2-(2-Cyclopropylpyrimidin-4-yl)-5-(3-(6,7-dihydro-5H-pyrrolo[1,2-c]imidazol-3-yl)piperidin-1-yl)-3H-imidazo[4,5-b]pyridine], for which the 50% inhibitory concentration (IC50) amounted to 252 nM.

The IC50 is the concentration that gives 50% inhibition.

Source of the values: patent US9296745B2, “Diacylglycerol acyltransferase 2 inhibitors” (Pfizer Inc., priority 2012, dated 2016).
